In US20050158371A1, “Novel external agent” (Sumitomo Pharmaceuticals Co., Ltd., priority 2002, published 2005):

Experiment: Serum concentration of leflunomide after transdermal or oral administration to adjuvant arthritis rats, LC-MS/MS (Experimental Example 5B)
Type: in vivo
Conditions: rat, leflunomide in serum, single oral administration 20 mg/kg
Protocol: The dosage form for external application of leflunomide as shown in Example was administered once to adjuvant arthritis rats prepared in the same manner as in Experimental Example 1B and the concentration of leflunomide in serum was measured using LC-MS/MS. In addition, the concentration in serum on simultaneous oral administration of leflunomide once (20 mg/kg) was measured and compared.

Q: With `Cc1oncc1C(=O)Nc1ccc(C(F)(F)F)cc1` [leflunomide, N-(4′-trifluoromethylphenyl)-5-methylisoxazole-4-carboxamide] as the compound, how does the AUC(0-t) (read-out: AUC, area under the drug concentration-time curve [AUC(0−T)]) read?
A: Its AUC(0-t) is 600 ng·h/mL.

Q: And the Cmax (read-out: Cmax, maximum drug concentration)?
A: The Cmax was 502 ng/mL.

Q: And the Tmax (read-out: tmax, times to reach maximum drug concentration)?
A: The Tmax was 30 min.
